Experimental data published in patent US20230348418A1, “ISOINDOLINONE COMPOUNDS” (Monte Rosa Therapeutics, Inc., priority 2021, published 2023).
Like-named read-outs stand apart in the source and are kept apart here.

Tests used:
[1] = biological target: T1, Full length wild-type cereblon CRBN (Homo sapiens, UniProt Q96SW2); test: Fluorescence polarization (FP) assay, cereblon binding
T1 construct: Full length wild-type cereblon CRBN (80.0 nM, 10 μL) was incubated in assay buffer
How it was run: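 Full-length wild-type human CRBN (80.0 nM) was preincubated with compound for 30 min at room temperature in 20 mM HEPES pH 8.0, 150 NaCl, 0.5 mM TCEP and 0.05% Tween 20. A Cy5-type thalidomide-linked fluorescent probe was then added. The FP signal was normalized to the DMSO control to derive IC50.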

[2] = biological target: T2, IKZF1 (Ikaros) (Homo sapiens, UniProt Q13422); test: Western blot selectivity assay in MM1S cells: IKZF1; type: cell-based; parameters: key: A represents a no degradation observed at 30 μM; B represents trace degradation at 30 μM (below 20%); C represents weak degradation at 30 μM (below 50%); D represents degradation at 30 μM (>90%); E represents degradation at 3 μM (>90%); F represents degradation at 0.3 μM (>90%); settings: MM1S cells, 0.3, 3 and 30 μM, 6 hours
T2 construct: endogenous in cells; host or cells: MM1S (ATCC CRL-2974)
T2 sequence (Q96SW2 whole entry partner): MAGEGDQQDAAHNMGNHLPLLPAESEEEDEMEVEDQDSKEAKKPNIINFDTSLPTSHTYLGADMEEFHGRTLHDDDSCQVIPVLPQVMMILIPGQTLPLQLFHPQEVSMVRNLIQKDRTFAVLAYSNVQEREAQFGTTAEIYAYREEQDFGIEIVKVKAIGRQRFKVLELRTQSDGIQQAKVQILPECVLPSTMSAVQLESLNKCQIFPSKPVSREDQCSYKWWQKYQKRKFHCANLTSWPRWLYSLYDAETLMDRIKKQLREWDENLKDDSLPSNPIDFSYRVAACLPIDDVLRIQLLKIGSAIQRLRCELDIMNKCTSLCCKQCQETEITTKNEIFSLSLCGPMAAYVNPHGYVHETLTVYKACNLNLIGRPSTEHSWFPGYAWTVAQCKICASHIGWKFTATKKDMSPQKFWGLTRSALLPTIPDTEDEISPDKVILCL
T2 sequence (Q16531 2-1140 partner limits assumed): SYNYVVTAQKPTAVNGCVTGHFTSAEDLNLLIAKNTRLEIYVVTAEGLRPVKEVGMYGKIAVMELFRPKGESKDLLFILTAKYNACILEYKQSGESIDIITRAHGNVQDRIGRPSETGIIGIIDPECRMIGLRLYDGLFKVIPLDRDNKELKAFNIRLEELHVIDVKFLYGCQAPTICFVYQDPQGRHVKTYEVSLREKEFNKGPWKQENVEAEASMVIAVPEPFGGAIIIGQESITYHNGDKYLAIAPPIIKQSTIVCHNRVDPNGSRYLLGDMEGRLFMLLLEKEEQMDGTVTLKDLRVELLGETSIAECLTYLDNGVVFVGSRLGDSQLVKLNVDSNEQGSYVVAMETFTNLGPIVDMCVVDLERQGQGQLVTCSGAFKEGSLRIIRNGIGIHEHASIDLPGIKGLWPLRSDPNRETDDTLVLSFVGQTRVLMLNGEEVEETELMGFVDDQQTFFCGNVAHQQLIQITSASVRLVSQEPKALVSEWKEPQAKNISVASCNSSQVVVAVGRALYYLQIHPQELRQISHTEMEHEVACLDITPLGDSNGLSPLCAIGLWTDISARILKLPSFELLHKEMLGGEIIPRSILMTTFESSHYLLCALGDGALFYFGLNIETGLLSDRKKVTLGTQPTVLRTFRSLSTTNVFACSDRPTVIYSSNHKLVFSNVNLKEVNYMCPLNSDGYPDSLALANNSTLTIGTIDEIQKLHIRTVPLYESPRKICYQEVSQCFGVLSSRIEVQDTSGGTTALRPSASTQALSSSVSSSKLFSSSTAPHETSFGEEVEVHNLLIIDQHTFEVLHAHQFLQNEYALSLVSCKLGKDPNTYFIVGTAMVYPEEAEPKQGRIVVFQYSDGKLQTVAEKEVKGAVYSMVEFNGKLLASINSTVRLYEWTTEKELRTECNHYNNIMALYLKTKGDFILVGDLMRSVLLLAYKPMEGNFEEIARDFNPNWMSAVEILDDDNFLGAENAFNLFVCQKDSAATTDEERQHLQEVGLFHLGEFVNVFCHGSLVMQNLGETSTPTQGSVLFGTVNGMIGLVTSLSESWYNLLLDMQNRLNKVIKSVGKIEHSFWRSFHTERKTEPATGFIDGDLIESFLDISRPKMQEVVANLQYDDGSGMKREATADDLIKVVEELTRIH
T2 sequence (Q13422 whole entry): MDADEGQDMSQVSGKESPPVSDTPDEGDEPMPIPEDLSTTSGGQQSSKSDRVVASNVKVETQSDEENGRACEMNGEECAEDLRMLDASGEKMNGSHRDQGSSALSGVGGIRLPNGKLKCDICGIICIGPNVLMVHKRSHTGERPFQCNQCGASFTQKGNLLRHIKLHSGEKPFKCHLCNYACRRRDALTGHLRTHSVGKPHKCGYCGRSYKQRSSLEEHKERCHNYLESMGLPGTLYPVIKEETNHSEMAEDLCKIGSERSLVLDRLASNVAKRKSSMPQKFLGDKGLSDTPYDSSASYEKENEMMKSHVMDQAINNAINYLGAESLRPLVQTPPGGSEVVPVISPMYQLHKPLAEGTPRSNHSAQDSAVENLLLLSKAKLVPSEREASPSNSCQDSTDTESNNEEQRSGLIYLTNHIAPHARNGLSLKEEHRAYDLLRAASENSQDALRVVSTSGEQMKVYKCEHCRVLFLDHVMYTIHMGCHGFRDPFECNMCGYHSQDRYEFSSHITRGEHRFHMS
Procedure: MM1S cells were purchased from ATCC (cat. Number CRL-2974), sub-cultured in 90% RPMI 1640 with 10% FBS, supplemented with 1×P/S and incubated at 37° C., 5% CO2. Compounds were stored as 10 mM DMSO stock. For the assay, MM1S cells (3 million cells/well) were plated in 6-well plates and incubated over night. Cells were treated with respective compounds using a serial dilution: 0.3 μM, 3 μM and 30 μM as well as a vehicle only (DMSO) control for 6 hours. Media with suspension cells was subsequently transferred to 15 mL conical tubes, wells rinsed twice with ice-cold PBS and merged with cell suspension in respective 15 mL conical tube. Cells were spinned down, supernatant aspirated, pellets resuspended in ice-cold PBS and transferred to microtubes. Cells were spinned down, supernatant aspirated and pellets resuspended in 120 μL RIPA lysis buffer supplemented with protease and phosphatase inhibitors. Cell lysates were incubated on ice for 20 minutes followed by centrifugation at >20,000×g for 5 min. Supernatants were transferred to fresh microtubes and stored at −80° C. Total protein concentration was determined using a BCA assay with a BSA standard curve and concentration of all samples was adjusted to 1 mg/mL. 25 μL 4×LDS sample buffer supplemented with 100 mM DTT was added to 75 μL sample. Samples were centrifuged (8,000×g, 1 min) and incubated at 95° C. for 5 min followed by another centrifugation step (8,000×g, 1 min). 20 μL of each sample was loaded on a 4-12% gel alongside a protein molecular weight marker. Gels were run in the presence of MOPS buffer at 80 Volts for 30 min, followed by 120 Volts for 1.5 h and proteins subsequently transferred onto nitrocellulose membranes at 20 Volts for 7 min using an iBlot2 Gel Transfer Device. Membranes were then cut horizontally into two pieces, covering 80-50 kDa and 50-25 kDa. Blocking the membranes was performed by gently shaking in 5% (w/v) skim milk in TSB-T for 1 hr at room temperature. All primary antibodies were used at a 1/1000 in 5% (w/v) BSA dissolved in TBST and incubated with membranes over night at 4° C. Anti-IKZF1 (Ikaros; D6N9Y; 14859S), anti-IKZF3 (Aiolos; D1C1E; 15103S) antibodies were purchased from Cell Signalling Technology, anti-ZFP91 antibody from Bethyl laboratories, anti-GSPT1 from Sigma Aldrich (HPA052488) and anti CK1alpha from AbCam (ab206652). After three washes with 1×TBST for 5 min, HRP-coupled secondary antibodies diluted in 5% (w/v) BSA/TBST (Goat Anti-Rb IgG, dil. 1/10,000; Goat Anti-Mouse IgG, dil. 1/5000) were added for 1 hr at room temperature. After three washes with 1×TBST (5 minutes each), membranes were incubated with ECL reagent for 1 min at room temperature. Chemiluminescence signals were then detected using a LAS-4000 system with default settings and signals quantified using Image Studio Lite software (version 5.2). Membrane parts previously incubated with antibody against CK1alpha were stripped off antibodies by incubating with stripping buffer for 30 minutes followed by three washed with TBST (5 min each), blocking with 5% (w/v) skim milk for 1 hr, and incubation with primary antibody against GAPDH overnight at 4° C. Subsequent washes, incubation with secondary antibody and signal acquisition were performed as described above.

T1 sequence (Q96SW2 whole entry): as the sequence (Q96SW2 whole entry partner) above

IC50 ([1]; bounds stated in the text lists b2059-b2061, read-out: IC50 value): < 1700 nM | IC50 ([1]; cereblon binding, class code, read-out: rFP IC50): 1100 to 1700 nM | IKZF1 degradation [2]: A
SMILES: Cc1ccc(NC(=O)OCc2ccc3c(c2)C(=O)N(C2CCC(=O)NC2=O)C3)cc1Cl (stereo not drawn) [Compound 10]
